Results reported in PubChem BioAssay AID437 (SGCStoCompounds, 2006).

Target: Inositol-trisphosphate 3-kinase C (Homo sapiens) (UniProt Q96DU7)
Assay: ITPKC binders by thermal stabilisation, biophysical, DSF, SYPRO orange, purified human protein (AID 437)
Settings: at 20 µM, protein 5.9 µM, buffer 300 mM NaCl, 50 mM Hepes, 10% glycerol, 2 mM TCEP pH 7.5, stronger effect = higher value

Sequence of Inositol-trisphosphate 3-kinase C (Homo sapiens) (Q96DU7 whole entry, looked up): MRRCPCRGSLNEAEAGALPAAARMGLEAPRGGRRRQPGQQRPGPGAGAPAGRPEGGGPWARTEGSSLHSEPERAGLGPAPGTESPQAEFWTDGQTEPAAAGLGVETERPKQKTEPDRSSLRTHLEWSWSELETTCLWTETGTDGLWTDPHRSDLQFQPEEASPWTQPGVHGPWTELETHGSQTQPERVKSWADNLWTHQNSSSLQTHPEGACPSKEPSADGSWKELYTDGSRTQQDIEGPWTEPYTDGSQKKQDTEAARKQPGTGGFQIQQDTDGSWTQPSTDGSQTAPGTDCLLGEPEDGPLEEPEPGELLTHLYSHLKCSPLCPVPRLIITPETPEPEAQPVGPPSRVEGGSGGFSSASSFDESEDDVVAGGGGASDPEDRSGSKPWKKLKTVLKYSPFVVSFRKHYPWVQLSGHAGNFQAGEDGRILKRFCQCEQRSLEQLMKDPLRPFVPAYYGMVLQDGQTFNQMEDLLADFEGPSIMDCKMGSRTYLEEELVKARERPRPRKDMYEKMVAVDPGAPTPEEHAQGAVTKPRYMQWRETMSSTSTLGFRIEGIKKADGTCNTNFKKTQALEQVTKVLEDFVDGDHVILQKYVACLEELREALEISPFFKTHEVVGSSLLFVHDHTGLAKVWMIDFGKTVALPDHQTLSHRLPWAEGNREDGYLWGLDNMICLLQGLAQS

Row | SMILES | Tm shift [Celsius]
1 | NC(O)(O)c1ccc(N=Nc2c(O)[nH]c3ccc(Cl)cc23)cc1 | 3.7
2 | NC1=CC2N=CN=C(Nc3cccc(Br)c3)C2C=C1N (configuration not stated) | 5.2
3 | O=C1Cc2c([nH]c3ccc(Br)cc23)-c2ccccc2N1 | 3.1
4 | O=c1c2ccccc2[nH]c(=S)n1CCN1CCC(=C(c2ccc(F)cc2)c2ccc(F)cc2)CC1 | 6.4
5 | COC1=CC(/C=C/C(=O)CC(=O)/C=C/c2ccc(O)c(OC)c2)=CCC1O (configuration not stated) | 6.6
6 | NC1=N/C(=C2/CCNC(=O)c3[nH]c(Br)cc32)C(=O)N1 | 3
7 | Brc1c(Br)c(Br)c2n[nH]nc2c1Br | 4.6
8 | CN(C)S(O)(O)c1ccc2c(c1)/C(=C/c1cc3c([nH]1)CCCC3)C(=O)N2 | 3.2
9 | Nc1ncnc2c1C(I)CN2[C@@H]1O[C@H](CO)C(O)C1O (some centres not stated) | 4.7
10 | Oc1ccc(-c2nc(-c3ccc(F)cc3)c(-c3ccncc3)[nH]2)cc1 | 4.4
11 | O=C1c2c(O)cc(O)cc2OC(c2ccc(O)c(O)c2)C1O (configuration not stated) | 13.3
12 | CC(C)(C)c1nc2c3cc[nH]c(=O)c3c3cc(F)ccc3c2[nH]1 | 3.3
13 | CCOc1cc(/C=C(\C#N)CON)cc(CSc2ccccc2)c1O | 4.2
14 | CNC(=O)c1cc(Oc2ccc(NC(=O)Nc3ccc(C)c(C(F)(F)F)c3)cc2)ccn1 | 5.7
15 | O=C1Nc2ccc(I)cc2/C1=C/c1cc(Br)c(O)c(Br)c1 | 10.4
16 | O=c1c(-c2ccc(O)cc2)coc2cc(O)cc(O)c12 | 3.3
17 | C=S(C)c1ccc(CSc2nc(-c3ccc(F)cc3)c(-c3ccncc3)[nH]2)cc1 (configuration not stated) | 5.6
